What was measured:
Assay type in all cases: in vivo
Poa annua (POAAN) [1] = assay: Herbicidal post-emergence action (Table B3); conditions: rated visually after about 3 weeks, 100% = plants have died, 0% = like control plants
Method in brief: (§1)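 Greenhouse pot-grown weeds in sandy loam, sprayed at the one-leaf stage (2–3 weeks post-sowing) with WP or EC formulations plus 0.5% additive at 600 l/ha water, at 1280 or 320 g/ha. Visual % activity versus untreated controls rated about 3 weeks later (100% = dead).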

[2] = tested on: Amaranthus retroflexus (AMARE); assay: Herbicidal post-emergence action (Table B6); conditions: visual rating about 3 weeks after treatment, 100% = plants have died, 0% = like control plants
Method in brief: as §1

[3] = tested on: Echinochloa crus-galli (ECHCG); assay: Herbicidal post-emergence action (Table B1); conditions: rated visually after about 3 weeks, 100% = plants have died, 0% = like control plants
Method in brief: as §1

[4] = tested on: Digitaria sanguinalis (DIGSA); assay: Herbicidal post-emergence action (Table B10); conditions: visual rating about 3 weeks after treatment, 100% = plants have died, 0% = like control plants
Method in brief: as §1

Setaria viridis (SETVI) [5] = assay: Herbicidal post-emergence action (Table B4); conditions: rated visually after about 3 weeks, 100% = plants have died, 0% = like control plants
Protocol: (§2) Seeds of mono- and dicotyledonous weed plants were placed in plastic pots in sandy loam soil (doubly sown with in each case one species of mono- or dicotyledonous weed plants per pot), covered with soil and cultivated in a greenhouse under controlled growth conditions. 2 to 3 weeks after sowing, the test plants were treated at the one-leaf stage. The compounds of the invention, formulated in the form of wettable powders (WP) or as emulsion concentrates (EC), were applied onto the green parts of the plants as aqueous suspension or emulsion with addition of 0.5% additive at a water application rate of 600 liters per hectare (converted). After the test plants had been kept in the greenhouse under optimum growth conditions for about 3 weeks, the activity of the preparations was rated visually in comparison to untreated controls. For example, 100% activity=the plants have died, 0% activity=like control plants. Tables B1 to B12 below show the effects of selected compounds of the general formula (I) according to Table 1 on various harmful plants and an application rate corresponding to 1280 or 320 g/ha, which were obtained by the experimental procedure mentioned above.

Veronica persica (VERPE) [6] = assay: Herbicidal post-emergence action (Table B12); conditions: visual rating about 3 weeks after treatment, 100% = plants have died, 0% = like control plants
Method in brief: as §1

Stellaria media (STEME) [7] = assay: Herbicidal post-emergence action (Table B8); conditions: visual rating about 3 weeks after treatment, 100% = plants have died, 0% = like control plants
Method in brief: as §1

[8] = tested on: harmful plants ABUTH, AMARE, ECHCG, LOLRI, MATIN, POAAN, SETVI, STEME, ALOMY, DIGSA, KCHSC and VERPE; assay: Herbicidal post-emergence action, summary of Tables B1-B12; conditions: application rate of 1280 or 320 g of active ingredient per hectare; summary in words
Method in brief: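 Greenhouse weeds in sandy loam treated post-emergence at the one-leaf stage, 2–3 weeks after sowing, with WP or EC formulations sprayed with 0.5% additive at 600 L/ha water, 1280 or 320 g/ha. Damage rated visually after about 3 weeks versus untreated controls (0% = like control, 100% = dead).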

[9] = tested on: Echinochloa crus-galli (ECHCG); assay: Herbicidal pre-emergence action, test C (Table C1); conditions: visual scoring after about 3 weeks, 100% = plants have died, 0% = like control plants
Text: (§3) Seeds of mono- and dicotyledonous weed plants were placed in plastic pots in sandy loam soil (doubly sown with one species each of mono- or dicotyledonous weed plants per pot) and covered with soil. The compounds of the invention, formulated in the form of wettable powders (WP) or as emulsion concentrates (EC), were then applied onto the surface of the covering soil as aqueous suspension or emulsion with addition of 0.5% additive at a water application rate of 600 liters per hectare (converted). After the treatment, the pots were placed in a greenhouse and kept under good growth conditions for the test plants. After about 3 weeks, the effect of the preparations was scored visually in comparison with untreated controls as percentages. For example, 100% activity=the plants have died, 0% activity=like control plants. Tables C1 to C12 below show the effects of selected compounds of the general formula (I) according to Table 1 on various harmful plants and an application rate corresponding to 1280 or 320 g/ha, which were obtained by the experimental procedure mentioned above.

Lolium rigidum (LOLRI) [10] = assay: Herbicidal pre-emergence action, test C (Table C2); conditions: dosage 1280 g/ha; visual scoring after about 3 weeks; 100% = plants have died, 0% = like control plants
Text: as §3

[11] = tested on: Abutilon theophrasti (ABUTH); assay: Herbicidal post-emergence action (Table B5); conditions: rated visually after about 3 weeks, 100% = plants have died, 0% = like control plants
Method in brief: as §1

[12] = tested on: Alopecurus myosuroides (ALOMY); assay: Herbicidal pre-emergence action, test C (Table C9); conditions: visual scoring after about 3 weeks, 100% = plants have died, 0% = like control plants
Text: as §3

[13] = tested on: Amaranthus retroflexus (AMARE); assay: Herbicidal pre-emergence action, test C (Table C6); conditions: visual scoring after about 3 weeks, 100% = plants have died, 0% = like control plants
Method in brief: (§4)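 % herbicidal effect, visual, vs untreated; 0% = as control, 100% = plants dead. Scored ~3 wk post-application. Rate 1280 or 320 g/ha onto covering soil pre-emergence.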

Veronica persica (VERPE) [14] = assay: Herbicidal pre-emergence action, test C (Table C12); conditions: visual scoring vs untreated controls
Method in brief: as §4

[15] = tested on: Alopecurus myosuroides (ALOMY); assay: Herbicidal post-emergence action (Table B9); conditions: rated visually after about 3 weeks, 100% = plants have died, 0% = like control plants
Method in brief: as §1

[16] = tested on: Abutilon theophrasti (ABUTH); assay: Herbicidal pre-emergence action, test C (Table C5); conditions: visual scoring after about 3 weeks, 100% = plants have died, 0% = like control plants
Method in brief: as §4

[17] = tested on: harmful plants ABUTH, AMARE, ECHCG, LOLRI, MATIN, POAAN, SETVI, STEME, ALOMY, DIGSA, KCHSC and VERPE; assay: Herbicidal pre-emergence action (test C), summary of Tables C1-C12; conditions: application rate of 1280 or 320 g of active ingredient per hectare; summary in words
Method in brief: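 Pre-emergence pot test in sandy loam: WP or EC formulations were sprayed onto the covering soil with 0.5% additive at 600 L/ha water, at 1280 or 320 g/ha. Plants were kept in the greenhouse, and activity was rated visually about 3 weeks later as % versus untreated controls (100% = dead).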

Setaria viridis (SETVI) [18] = assay: Herbicidal pre-emergence action, test C (Table C4); conditions: visual scoring after about 3 weeks, 100% = plants have died, 0% = like control plants
Method in brief: as §4

Bassia scoparia (KCHSC) [19] = assay: Herbicidal post-emergence action (Table B11); conditions: visual rating about 3 weeks after treatment, 100% = plants have died, 0% = like control plants
Method in brief: as §1

[20] = tested on: Digitaria sanguinalis (DIGSA); assay: Herbicidal pre-emergence action, test C (Table C10); conditions: visual scoring after about 3 weeks, 100% = plants have died, 0% = like control plants
Method in brief: as §4

Stellaria media (STEME) [21] = assay: Herbicidal pre-emergence action, test C (Table C8); conditions: visual scoring after about 3 weeks, 100% = plants have died, 0% = like control plants
Method in brief: as §4

Bassia scoparia (KCHSC) [22] = assay: Herbicidal pre-emergence action, test C (Table C11); conditions: visual scoring vs untreated controls
Text: as §3

Lolium rigidum (LOLRI) [23] = assay: Herbicidal post-emergence action (Table B2); conditions: 1280 g/ha; rated visually after about 3 weeks; 100% = plants have died, 0% = like control plants
Protocol: as §2

[24] = tested on: Matricaria inodora (MATIN); assay: Herbicidal pre-emergence action, test C (Table C7); conditions: visual scoring after about 3 weeks, 100% = plants have died, 0% = like control plants
Method in brief: as §4

Poa annua (POAAN) [25] = assay: Herbicidal pre-emergence action, test C (Table C3); conditions: visual scoring after about 3 weeks, 100% = plants have died, 0% = like control plants
Method in brief: as §4

| Compound | Post-emergence action against Poa annua (POAAN) (Poa annua (POAAN) [1]; 320 g/ha) [%] | Post-emergence action against Poa annua (POAAN) (Poa annua (POAAN) [1]; 1280 g/ha) [%] | Post-emergence action against Amaranthus retroflexus (AMARE) ([2]; dosage 320 g/ha) [%] | Post-emergence action against Amaranthus retroflexus (AMARE) ([2]; dosage 1280 g/ha) [%] | Post-emergence action against Echinochloa crus-galli (ECHCG) ([3]; 1280 g/ha) [%] | Post-emergence action against Stellaria media (STEME) (Stellaria media (STEME) [7]; dosage 320 g/ha) [%] | Post-emergence action against Stellaria media (STEME) (Stellaria media (STEME) [7]; dosage 1280 g/ha) [%] | herbicidal activity against the harmful plants of Tables B1-B12 in post-emergence treatment [8] | Pre-emergence action against Echinochloa crus-galli (ECHCG) ([9]; dosage 1280 g/ha) [%] | Pre-emergence action against Lolium rigidum (LOLRI) (Lolium rigidum (LOLRI) [10]) [%] | Post-emergence action against Abutilon theophrasti (ABUTH) ([11]; 320 g/ha) [%] | Post-emergence action against Abutilon theophrasti (ABUTH) ([11]; 1280 g/ha) [%] | Pre-emergence action against Amaranthus retroflexus (AMARE) ([13]; dosage 320 g/ha) [%] | Pre-emergence action against Amaranthus retroflexus (AMARE) ([13]; dosage 1280 g/ha) [%] | Pre-emergence action against Abutilon theophrasti (ABUTH) ([16]; dosage 320 g/ha) [%] | Pre-emergence action against Abutilon theophrasti (ABUTH) ([16]; dosage 1280 g/ha) [%] | herbicidal activity against the harmful plants of Tables C1-C12 in pre-emergence treatment [17] | Pre-emergence action against Setaria viridis (SETVI) (Setaria viridis (SETVI) [18]; dosage 320 g/ha) [%] | Pre-emergence action against Setaria viridis (SETVI) (Setaria viridis (SETVI) [18]; dosage 1280 g/ha) [%] | Pre-emergence action against Stellaria media (STEME) (Stellaria media (STEME) [21]; dosage 320 g/ha) [%] | further results |
| --- | --- | --- | --- | --- | --- | --- | --- | --- | --- | --- | --- | --- | --- | --- | --- | --- | --- | --- | --- | --- | --- |
| N#Cc1cccc(Oc2ccc(Cl)cn2)c1-c1cc(C(F)F)no1 [Example 1-55] | 100 | 100 | 100 | 100 | 100 | 100 | 100 | very good herbicidal activity | 100 | 100 | 100 | 100 | 100 | 100 | 100 | 100 | very good herbicidal activity | 100 | 100 | 100 | Post-emergence action against Digitaria sanguinalis (DIGSA) ([4]; dosage 320 g/ha): 100%; Post-emergence action against Digitaria sanguinalis (DIGSA) ([4]; dosage 1280 g/ha): 100%; Post-emergence action against Setaria viridis (SETVI) (Setaria viridis (SETVI) [5]; 320 g/ha): 100%; Post-emergence action against Setaria viridis (SETVI) (Setaria viridis (SETVI) [5]; 1280 g/ha): 100%; Post-emergence action against Veronica persica (VERPE) (Veronica persica (VERPE) [6]; dosage 320 g/ha): 100%; Post-emergence action against Veronica persica (VERPE) (Veronica persica (VERPE) [6]; dosage 1280 g/ha): 100%; Pre-emergence action against Echinochloa crus-galli (ECHCG) ([9]; dosage 320 g/ha): 100%; Pre-emergence action against Alopecurus myosuroides (ALOMY) ([12]; dosage 320 g/ha): 100%; Pre-emergence action against Alopecurus myosuroides (ALOMY) ([12]; dosage 1280 g/ha): 100%; Pre-emergence action against Veronica persica (VERPE) (Veronica persica (VERPE) [14]; dosage 320 g/ha): 100%; Pre-emergence action against Veronica persica (VERPE) (Veronica persica (VERPE) [14]; dosage 1280 g/ha): 100%; Post-emergence action against Alopecurus myosuroides (ALOMY) ([15]; 320 g/ha): 100%; Post-emergence action against Alopecurus myosuroides (ALOMY) ([15]; 1280 g/ha): 100%; Post-emergence action against Bassia scoparia (KCHSC) (Bassia scoparia (KCHSC) [19]; dosage 320 g/ha): 100%; Post-emergence action against Bassia scoparia (KCHSC) (Bassia scoparia (KCHSC) [19]; dosage 1280 g/ha): 100%; Pre-emergence action against Digitaria sanguinalis (DIGSA) ([20]; dosage 320 g/ha): 100%; Pre-emergence action against Digitaria sanguinalis (DIGSA) ([20]; dosage 1280 g/ha): 100%; Pre-emergence action against Stellaria media (STEME) (Stellaria media (STEME) [21]; dosage 1280 g/ha): 100%; Pre-emergence action against Bassia scoparia (KCHSC) (Bassia scoparia (KCHSC) [22]; dosage 320 g/ha): 100%; Pre-emergence action against Bassia scoparia (KCHSC) (Bassia scoparia (KCHSC) [22]; dosage 1280 g/ha): 100% |
| Fc1cccc(Oc2ccccn2)c1-c1cc(C(F)F)no1 [Example 1-16] | 100 | 100 | 100 | 100 | 100 | 100 | 100 | very good herbicidal activity | 90 | 100 | 100 | 100 | 100 | 100 | 100 | 100 | very good herbicidal activity | 100 | 100 | 100 | Post-emergence action against Lolium rigidum (LOLRI) (Lolium rigidum (LOLRI) [23]): 100%; Pre-emergence action against Matricaria inodora (MATIN) ([24]; dosage 320 g/ha): 90%; Pre-emergence action against Matricaria inodora (MATIN) ([24]; dosage 1280 g/ha): 100%; Pre-emergence action against Poa annua (POAAN) (Poa annua (POAAN) [25]; dosage 320 g/ha): 100%; Pre-emergence action against Poa annua (POAAN) (Poa annua (POAAN) [25]; dosage 1280 g/ha): 100%; Post-emergence action against Echinochloa crus-galli (ECHCG) ([3]; 320 g/ha): 90%; Pre-emergence action against Stellaria media (STEME) (Stellaria media (STEME) [21]; dosage 1280 g/ha): 100% |

— US12052991B2, “Substituted pyridinyloxybenzenes and salts thereof and use thereof as herbicidal agents” (Bayer Aktiengesellschaft, priority 2018, dated 2024)
